Measurements taken from patent US20240287138A1, “CYCLIC PEPTIDES FOR INHIBITING TNF RECEPTOR 1 ACTIVITY” (Merck Sharp & Dohme LLC, priority 2023, published 2024).
Numbered stars: 1 amine (or outer) side, 2 acyl side, 3 side chain; on linkers, the order of the positions; unused ones are H or OH. Bridge positions count the residues as written; N and C are the ends. Square brackets hold non-standard residues; d marks the D form. Peptide text beside a SMILES is read from it. Trp(βS-Me,7-OMe) = COc1cccc2c([C@H](C)[C@H](N)C(=O)O)c[nH]c12; Ala(indazol-1-yl) = N[C@@H](Cn1ncc2ccccc21)C(=O)O; Trp(7-CN) = N#Cc1cccc2c(C[C@H](N)C(=O)O)c[nH]c12; Trp(7-Cl) = N[C@@H](Cc1c[nH]c2c(Cl)cccc12)C(=O)O; Phe(4-CONH2) = NC(=O)c1ccc(C[C@H](N)C(=O)O)cc1; Phe(4-COOH) = N[C@@H](Cc1ccc(C(=O)O)cc1)C(=O)O; 4Pal(3S-Me) = C[C@@H](c1ccncc1)[C@H](N)C(=O)O; Trp(7-aza) = N[C@@H](Cc1c[nH]c2ncccc12)C(=O)O; Pip(5R-OH) = O=C(O)[C@@H]1CC[C@@H](O)CN1; αMeW = C[C@](N)(Cc1c[nH]c2ccccc12)C(=O)O; X1 = O=C([C@@H]1CC[C@H](N[*:1])C1)[*:2]; Pip(4-aza) = O=C(O)[C@@H]1CNCCN1; 4Pal = N[C@@H](Cc1ccncc1)C(=O)O; Abu(4-CN) = N#CCC[C@H](N)C(=O)O; Gly(cBu) = N[C@H](C(=O)O)C1CCC1; NMeE = CN[C@@H](CCC(=O)O)C(=O)O; dHyp = O=C(O)[C@H]1C[C@H](O)CN1; Gly(N-CH2CH2OH) = O=C(O)CNCCO; Ahp(2) = CCCCC[C@H](N)C(=O)O; αMeS = C[C@](N)(CO)C(=O)O; Nle = CCCC[C@H](N)C(=O)O; Sar = CNCC(=O)O

Assays:
[1] = target: T1, human soluble TNFR1 (sTNFR1) (Homo sapiens, UniProt P19438); assay: Human sTNFR1-peptide displacement assay (LanthaScreen Eu TR-FRET binding assay)
T1 construct: made in house; host or cells: Sf21 (baculovirus)
T1 sequence (P19438 with tags, fused parts or gaps): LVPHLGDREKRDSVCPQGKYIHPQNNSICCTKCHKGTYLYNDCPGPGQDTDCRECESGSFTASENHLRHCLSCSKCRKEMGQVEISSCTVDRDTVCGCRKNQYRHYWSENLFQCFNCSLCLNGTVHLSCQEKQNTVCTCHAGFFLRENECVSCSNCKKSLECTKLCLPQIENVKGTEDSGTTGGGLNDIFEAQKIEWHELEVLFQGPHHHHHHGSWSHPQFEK
Procedure, shortened: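 Readout is the 665/615 nm TR-FRET ratio (Eu anti-His donor, streptavidin-Alexa647 acceptor), normalized to DMSO and saturating displacer, fit by Morrison-based five-parameter logistic for Kd^app. His-tagged sTNFR1 (1-211) prebound to 100 nM biotinylated peptide SEQ ID NO.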

[2] = target: T2, TNFα-induced NF-κB signal transduction pathway (TNFR1 signaling) in THP-1 cells (Homo sapiens, UniProt P19438); assay: THP-1 Lucia NF-κB reporter cell assay, inhibition of TNFα-induced NF-κB signaling; type: cell-based; conditions: THP-1 NF-κB Lucia reporter cells, 10 ng/mL TNFα, 16-18 h, secreted luciferase; read-out: THP-1 IC50
T2 sequence (P19438 30-455): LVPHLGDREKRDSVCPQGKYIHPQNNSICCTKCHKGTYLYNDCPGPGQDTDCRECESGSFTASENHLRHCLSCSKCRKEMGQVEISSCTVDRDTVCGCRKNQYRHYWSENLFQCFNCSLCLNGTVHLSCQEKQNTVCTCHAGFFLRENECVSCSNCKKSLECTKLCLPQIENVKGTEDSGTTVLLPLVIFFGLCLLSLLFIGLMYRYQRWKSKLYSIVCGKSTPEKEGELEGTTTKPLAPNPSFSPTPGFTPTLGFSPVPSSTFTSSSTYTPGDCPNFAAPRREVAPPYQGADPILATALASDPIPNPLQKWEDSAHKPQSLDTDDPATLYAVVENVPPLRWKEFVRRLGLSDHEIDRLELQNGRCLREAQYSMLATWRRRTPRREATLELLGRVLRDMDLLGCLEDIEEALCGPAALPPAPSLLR
Procedure, shortened: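 Inhibition of TNFR1-driven NF-κB activation was measured as luminescence of secreted reporter luciferase following overnight (16-18 h) stimulation with 10 ng/mL TNFα.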

| Structure (SMILES) | Kd [1] [nM] | IC50 [2] [nM] |
| --- | --- | --- |
| CCCC[C@@H]1NC(=O)CSC[C@@H](C(N)=O)NC(=O)[C@](C)(Cc2c[nH]c3ccccc23)NC(=O)CN(C)C(=O)[C@H](Cc2ccc(O)cc2)NC(=O)[C@H](Cc2ccc(C(=O)O)cc2)NC(=O)[C@](C)(CO)NC(=O)[C@H](Cc2c[nH]c3c(Cl)cccc23)NC(=O)[C@H](Cc2ccncc2)NC(=O)[C@H](CC(N)=O)NC(=O)[C@H](CCC(=O)O)N(C)C(=O)[C@H](Cc2c[nH]c3ncccc23)NC(=O)[C@H](C2CCC2)NC(=O)[C@H](Cc2ccncc2)NC1=O [SEQ ID NO. 56] ({CH2CO}-[Nle][4Pal][Gly(cBu)][Trp(7-aza)][NMeE]N[4Pal][Trp(7-Cl)][αMeS][Phe(4-COOH)]Y[Sar][αMeW]C-NH2; thioether N-14) | 2 | 11 |
| CCCCC[C@@H]1NC(=O)[C@@H]2CC[C@@H](C2)NC(=O)[C@H]([C@@H](C)c2c[nH]c3c(OC)cccc23)NC(=O)CN(C)C(=O)[C@H](Cc2ccc(C(N)=O)cc2)NC(=O)[C@H](Cc2ccc(C(N)=O)cc2)NC(=O)[C@](C)(CO)NC(=O)[C@H](Cc2c[nH]c3c(C#N)cccc23)NC(=O)[C@H](Cc2ccc(C(=O)O)cc2)NC(=O)[C@H](CC(N)=O)NC(=O)[C@H]2C[C@H](O)CN2C(=O)[C@H](Cc2c[nH]c3ccccc23)NC(=O)[C@H](CCC(N)=O)NC(=O)[C@H]([C@@H](C)c2ccncc2)NC1=O [SEQ ID NO. 70] (cyclo([Ahp(2)][4Pal(3S-Me)]QW[dHyp]N[Phe(4-COOH)][Trp(7-CN)][αMeS][Phe(4-CONH2)][Phe(4-CONH2)][Sar][Trp(βS-Me,7-OMe)][X1])) | 0.12 | 0.9 |
| CCCC[C@@H]1NC(=O)[C@@H]2CC[C@@H](C2)NC(=O)[C@H]([C@@H](C)c2c[nH]c3c(OC)cccc23)NC(=O)CN(C)C(=O)[C@H](Cc2ccc(O)cc2)NC(=O)[C@H](Cc2ccc(C(=O)O)cc2)NC(=O)[C@](C)(CO)NC(=O)[C@H](Cc2c[nH]c3c(Cl)cccc23)NC(=O)[C@H](Cc2ccncc2)NC(=O)[C@H](CC(N)=O)NC(=O)CN(CCO)C(=O)[C@H](Cc2c[nH]c3ccccc23)NC(=O)[C@@H]2CNCCN2C(=O)[C@H](Cc2ccncc2)NC1=O [SEQ ID NO. 72] (cyclo([4Pal][Trp(7-Cl)][αMeS][Phe(4-COOH)]Y[Sar][Trp(βS-Me,7-OMe)][X1][Nle][4Pal][Pip(4-aza)]W[Gly(N-CH2CH2OH)]N)) | 0.09 | 0.8 |
| CCCC[C@@H]1NC(=O)[C@@H]2CC[C@@H](C2)NC(=O)[C@H]([C@@H](C)c2c[nH]c3c(OC)cccc23)NC(=O)CN(C)C(=O)[C@H](Cc2ccc(O)cc2)NC(=O)[C@H](Cc2ccc(C(N)=O)cc2)NC(=O)[C@](C)(CO)NC(=O)[C@H](Cc2c[nH]c3c(Cl)cccc23)NC(=O)[C@H](Cc2ccncc2)NC(=O)[C@H](CC(N)=O)NC(=O)[C@H](CCC(=O)O)N(C)C(=O)[C@H](Cn2ncc3ccccc32)NC(=O)[C@@H]2CC[C@@H](O)CN2C(=O)[C@H](Cc2ccncc2)NC1=O [SEQ ID NO. 74] (cyclo([4Pal][Trp(7-Cl)][αMeS][Phe(4-CONH2)]Y[Sar][Trp(βS-Me,7-OMe)][X1][Nle][4Pal][Pip(5R-OH)][Ala(indazol-1-yl)][NMeE]N)) | 0.08 | 0.5 |
| CCCCC[C@@H]1NC(=O)[C@@H]2CC[C@@H](C2)NC(=O)[C@H]([C@@H](C)c2c[nH]c3c(OC)cccc23)NC(=O)CN(C)C(=O)[C@H](Cc2ccc(C(N)=O)cc2)NC(=O)[C@H](Cc2ccc(C(N)=O)cc2)NC(=O)[C@](C)(CO)NC(=O)[C@H](Cc2c[nH]c3c(C#N)cccc23)NC(=O)[C@H](Cc2ccc(C(=O)O)cc2)NC(=O)[C@H](CC(N)=O)NC(=O)[C@H]2C[C@H](O)CN2C(=O)[C@H](Cc2c[nH]c3ccccc23)NC(=O)[C@H](CCC#N)NC(=O)[C@H]([C@@H](C)c2ccncc2)NC1=O [SEQ ID NO. 79] (cyclo([Ahp(2)][4Pal(3S-Me)][Abu(4-CN)]W[dHyp]N[Phe(4-COOH)][Trp(7-CN)][αMeS][Phe(4-CONH2)][Phe(4-CONH2)][Sar][Trp(βS-Me,7-OMe)][X1])) | 0.15 | 1.3 |
